Source: publication PMC9147192, “Small Molecule Arranged Thermal Proximity Coaggregation (smarTPCA)—A Novel Approach to Characterize Protein–Protein Interactions in Living Cells by Similar Isothermal Dose–Responses” (International Journal of Molecular Sciences, 2022)
Where two headings read alike, the source gives them in different places.

Assays:
[1] = system: MAPK14; parameters: method as in Seashore-Ludlow et al., Biochemistry 2018; details: MAPK14 only, ref Seashore-Ludlow et al., Biochemistry 2018, cited from earlier work
[2] = molecular target: MAPK14 (Homo sapiens, UniProt Q16539); assay: TPP-CCR in living HL-60 cells; details: […] °C, TMT-MS
MAPK14 (Homo sapiens, UniProt Q16539), sequence (Q16539 whole entry): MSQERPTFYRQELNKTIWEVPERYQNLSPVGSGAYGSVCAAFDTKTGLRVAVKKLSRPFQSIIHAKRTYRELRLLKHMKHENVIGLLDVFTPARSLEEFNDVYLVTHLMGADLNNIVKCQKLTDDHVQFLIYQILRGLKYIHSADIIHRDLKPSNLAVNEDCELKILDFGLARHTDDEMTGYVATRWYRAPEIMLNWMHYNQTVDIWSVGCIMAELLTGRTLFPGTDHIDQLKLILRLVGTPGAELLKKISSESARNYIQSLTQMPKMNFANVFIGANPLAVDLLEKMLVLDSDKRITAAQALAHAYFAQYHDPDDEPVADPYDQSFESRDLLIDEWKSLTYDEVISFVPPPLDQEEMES

[3] = molecular target: MAPKAPK3 (Homo sapiens, UniProt Q16644); assay: TPP-CCR in living HL-60 cells; details: […] °C, TMT-MS
MAPKAPK3, sequence (Q16644 whole entry): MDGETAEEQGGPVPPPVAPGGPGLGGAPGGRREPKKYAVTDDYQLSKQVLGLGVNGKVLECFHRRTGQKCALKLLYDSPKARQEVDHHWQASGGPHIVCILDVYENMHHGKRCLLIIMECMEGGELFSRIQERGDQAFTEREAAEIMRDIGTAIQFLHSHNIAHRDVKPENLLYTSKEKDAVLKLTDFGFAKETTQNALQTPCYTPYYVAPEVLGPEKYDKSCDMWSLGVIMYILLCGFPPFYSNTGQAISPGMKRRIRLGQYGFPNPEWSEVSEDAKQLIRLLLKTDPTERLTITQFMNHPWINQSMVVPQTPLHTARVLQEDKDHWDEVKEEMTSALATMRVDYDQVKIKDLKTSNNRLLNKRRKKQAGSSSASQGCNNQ
MAPKAPK3, sequence (Q16539 2-360 partner limits assumed): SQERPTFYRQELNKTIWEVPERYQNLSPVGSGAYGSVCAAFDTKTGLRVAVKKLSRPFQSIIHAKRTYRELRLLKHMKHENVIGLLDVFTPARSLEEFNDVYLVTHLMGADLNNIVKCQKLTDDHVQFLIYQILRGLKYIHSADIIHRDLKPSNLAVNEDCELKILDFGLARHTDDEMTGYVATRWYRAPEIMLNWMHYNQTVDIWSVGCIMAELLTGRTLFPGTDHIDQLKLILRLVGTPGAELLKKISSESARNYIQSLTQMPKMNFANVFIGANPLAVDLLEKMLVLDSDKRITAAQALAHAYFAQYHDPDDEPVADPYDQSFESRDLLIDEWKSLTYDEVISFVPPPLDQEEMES

[4] = molecular target: MAPKAPK2 (Homo sapiens, UniProt P49137); assay: TPP-CCR in living HL-60 cells; details: […] °C, TMT-MS
MAPKAPK2, sequence (P49137 whole entry): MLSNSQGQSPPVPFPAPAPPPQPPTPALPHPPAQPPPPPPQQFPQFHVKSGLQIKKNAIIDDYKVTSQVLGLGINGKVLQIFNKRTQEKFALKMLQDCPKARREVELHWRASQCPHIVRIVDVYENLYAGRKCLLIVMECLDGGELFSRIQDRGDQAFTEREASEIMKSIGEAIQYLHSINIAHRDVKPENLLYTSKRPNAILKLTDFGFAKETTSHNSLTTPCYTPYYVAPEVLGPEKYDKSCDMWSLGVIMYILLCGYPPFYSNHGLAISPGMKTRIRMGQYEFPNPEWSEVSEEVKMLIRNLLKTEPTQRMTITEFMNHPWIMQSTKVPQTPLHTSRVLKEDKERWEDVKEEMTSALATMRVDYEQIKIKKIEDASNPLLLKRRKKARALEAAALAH
MAPKAPK2, sequence (Q16539 2-360 partner limits assumed): as the sequence (Q16539 2-360 partner limits assumed) above

[5] = molecular target: NUDT1 (Homo sapiens, UniProt P36639); assay: TPP-CCR in living HL-60 cells
[6] = molecular target: TRAPPC4 (Homo sapiens, UniProt Q9Y296); assay: TPP-CCR in living HL-60 cells
TRAPPC4, sequence (Q9Y296 whole entry): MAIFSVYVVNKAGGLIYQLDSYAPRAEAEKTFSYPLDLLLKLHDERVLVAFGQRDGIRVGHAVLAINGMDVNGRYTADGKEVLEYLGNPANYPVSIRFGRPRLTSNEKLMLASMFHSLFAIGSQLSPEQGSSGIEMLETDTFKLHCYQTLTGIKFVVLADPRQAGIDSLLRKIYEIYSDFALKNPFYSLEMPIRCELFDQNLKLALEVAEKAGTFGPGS

[7] = molecular target: T1, RARS (Homo sapiens, UniProt P54136); assay: TPP-CCR in living HL-60 cells; assay type: cell-based
T1 construct: endogenous in cells; host or cells: HL-60 (ATCC CCL-240)
T1 sequence (P54136 1-660): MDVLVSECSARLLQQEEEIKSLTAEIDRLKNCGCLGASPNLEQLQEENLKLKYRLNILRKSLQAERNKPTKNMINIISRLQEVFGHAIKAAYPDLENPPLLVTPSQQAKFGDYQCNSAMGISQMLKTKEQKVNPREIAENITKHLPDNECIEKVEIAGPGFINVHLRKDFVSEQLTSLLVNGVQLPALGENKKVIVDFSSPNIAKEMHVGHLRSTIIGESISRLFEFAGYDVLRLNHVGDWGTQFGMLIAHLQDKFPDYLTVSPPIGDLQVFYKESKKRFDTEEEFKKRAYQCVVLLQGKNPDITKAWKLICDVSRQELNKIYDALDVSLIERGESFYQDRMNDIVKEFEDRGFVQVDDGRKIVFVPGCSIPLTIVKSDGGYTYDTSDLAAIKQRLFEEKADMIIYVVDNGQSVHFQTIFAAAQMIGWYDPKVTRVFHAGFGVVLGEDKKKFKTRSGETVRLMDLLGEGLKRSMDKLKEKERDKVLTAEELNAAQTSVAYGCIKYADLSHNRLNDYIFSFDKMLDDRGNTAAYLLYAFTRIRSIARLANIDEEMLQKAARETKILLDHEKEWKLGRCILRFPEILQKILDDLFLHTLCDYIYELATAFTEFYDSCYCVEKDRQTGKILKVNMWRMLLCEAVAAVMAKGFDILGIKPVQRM

[8] = system: MYLK; parameters: method as in PMID 22037378; details: cited from earlier work
[9] = molecular target: NAPG (Homo sapiens, UniProt Q99747); assay: TPP-CCR in living HL-60 cells
NAPG, sequence (Q99747 whole entry): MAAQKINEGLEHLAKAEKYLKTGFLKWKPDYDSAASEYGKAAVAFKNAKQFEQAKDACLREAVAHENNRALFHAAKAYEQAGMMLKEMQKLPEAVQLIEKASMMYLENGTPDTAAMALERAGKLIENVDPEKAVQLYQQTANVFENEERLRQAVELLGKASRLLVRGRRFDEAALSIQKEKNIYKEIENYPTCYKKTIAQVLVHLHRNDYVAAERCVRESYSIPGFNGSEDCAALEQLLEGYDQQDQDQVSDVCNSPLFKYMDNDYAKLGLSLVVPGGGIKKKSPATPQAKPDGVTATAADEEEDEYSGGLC

[10] = living HL-60 cells, […] °C, TMT-MS

Cn1c(NC[C@@H](N)Cc2ccccc2)nc(-c2ccncc2)c(-c2ccc3ccccc3c2)c1=O [AMG-548]
pEC50, Living cells ([1]; extrapolated to 50°C and extracted from figure 3b): 8.57 | pEC50, Living cells ([1]; extrapolated to […]°C and extracted from figure 3b): 8.23 | Hill slope (MAPK14) [2]: 0.57 | Hill slope (MAPKAPK3) [3]: 0.68 | Hill slope (MAPKAPK2) [4]: 0.72 | EC50 [5]: 2290 nM | Hill slope (NUDT1) [5, 10]: 0.77 | EC50 [6]: 407 nM | Hill slope (TRAPPC4) [6, 10]: 0.43

Cc1cnc(Nc2ccc(F)cc2Cl)nc1-c1c[nH]c(C(=O)N[C@H](CO)c2cccc(Cl)c2)c1 [ERK 11e]
Hill slope ([7]; TPP-CCR, living cells, RARS): 0.38 | EC50 [7, 10]: 83.2 nM | Hill slope (RARS) [7, 10]: 0.38

C[S+]([O-])c1ccc(-c2nc(-c3ccncc3)c(-c3ccc(F)cc3)[nH]2)cc1 (stereo not drawn) [SB203580]
activity towards MYLK [8]: inactivity | EC50 [9]: 1.95 nM | Hill slope (NAPG) [9, 10]: 0.24
